Assay results: ChEMBL document CHEMBL3046756, “Synthesis, anti-inflammatory, and structure antioxidant activity relationship of novel 4-quinazoline” (Med Chem Res, 2013)
Activity calls are given as the source filed them. The calls are words filed in the database; no cut-off is given here.

Legend:
Format in all cases: functional
[1] = Antioxidant activity assessed as inhibition of linoleic acid peroxidation at 100 mg/l after 24 hr by spectrophotometric analysis
[2] = Antioxidant activity assessed as reduction of Fe3+ to Fe2+ at 20 to 140 ug/ml after 30 min by spectrophotometric analysis
Rattus norvegicus [3] = test: Anti-inflammatory activity in Wistar Rattus norvegicus (rat) assessed as inhibition of carrageenan-induced paw edema at 30 mg/kg, po administered 30 min prior to carrageenan challenge measured at 60 min relative to untreated control
Rattus norvegicus [4] = test: Anti-inflammatory activity in Wistar Rattus norvegicus (rat) assessed as inhibition of carrageenan-induced paw edema at 30 mg/kg, po administered 30 min prior to carrageenan challenge measured at 30 min post carrageenan challenge relative to untreated control
Rattus norvegicus [5] = test: Anti-inflammatory activity in Wistar Rattus norvegicus (rat) assessed as inhibition of carrageenan-induced paw edema at 30 mg/kg, po administered 30 min prior to carrageenan challenge measured at 180 min relative to untreated control
Rattus norvegicus [6] = test: Anti-inflammatory activity in Wistar Rattus norvegicus (rat) assessed as inhibition of carrageenan-induced paw edema at 30 mg/kg, po administered 30 min prior to carrageenan challenge measured at 120 min relative to untreated control
Rattus norvegicus [7] = test: Anti-inflammatory activity in Wistar Rattus norvegicus (rat) assessed as inhibition of carrageenan-induced paw edema at 30 mg/kg, po administered 30 min prior to carrageenan challenge measured at 90 min relative to untreated control
Rattus norvegicus [8] = test: Effect on GST level in Wistar Rattus norvegicus (rat) liver measured CDNB conjugated per min per mg of protein at 30 mg/kg, po after 10 days (reference value: 0.86 +/- 0.08 mmol)
Rattus norvegicus [9] = test: Effect on glutathione reductase level in Wistar Rattus norvegicus (rat) liver measured NADPH oxidized per min per mg of protein at 30 mg/kg, po after 10 days (reference value: 4.19 +/ 0.42 nmol)
Rattus norvegicus [10] = test: Effect on gamma-glutamyl transferase level in Wistar Rattus norvegicus (rat) serum at 30 mg/kg, po qd after 10 days (reference value: 0.57 +/- 0.04 U/I)
Rattus norvegicus [11] = test: Effect on ALP level in Wistar Rattus norvegicus (rat) serum at 30 mg/kg, po qd after 10 days (reference value: 39.5 +/- 3.86 U/I)
Rattus norvegicus [12] = test: Effect on SGPT level in Wistar Rattus norvegicus (rat) at 30 mg/kg, po qd after 10 days (reference value: 38.77 +/- 4.25 U/I)
Rattus norvegicus [13] = test: Effect on SGOT level in Wistar Rattus norvegicus (rat) at 30 mg/kg, po qd after 10 days (reference value: 145.50 +/- 13.86 U/I)
Rattus norvegicus [14] = test: Effect on glutathione peroxidase level in Wistar Rattus norvegicus (rat) liver measured GSH oxidized per min per mg of protein at 30 mg/kg, po after 10 days (reference value: 47.47 +/- 3.86 mmol)
Rattus norvegicus [15] = test: Effect on GSH level in Wistar Rattus norvegicus (rat) liver measured per mg of protein at 30 mg/kg, po after 10 days (reference value: 1.84 +/- 0.092 mg)
Rattus norvegicus [16] = test: Effect on TBARS level in Wistar Rattus norvegicus (rat) serum at 30 mg/kg, po qd after 10 days (reference value: 0.82 +/- 0.073 nmol/ml)
Rattus norvegicus [17] = test: Effect on LDH level in Wistar Rattus norvegicus (rat) serum at 30 mg/kg, po qd after 10 days (reference value: 249.89 +/- 13.26 U/I)
[18] = test system: Radical scavenging activity; test: Antioxidant activity assessed as DPPH free radical scavenging activity at 0.06 mg/ml after 5 to 60 min by spectrophotometric analysis
Rattus norvegicus [19] = test: Antipyretic activity in Wistar Rattus norvegicus (rat) assessed as decrease in Brewer's yeast solution-induced hyperthermia at 20 mg/kg, po measured after 3 hr (reference value: 36.8 +/- 1.9 degC)
Rattus norvegicus [20] = test: Antipyretic activity in Wistar Rattus norvegicus (rat) assessed as decrease in Brewer's yeast solution-induced hyperthermia at 20 mg/kg, po measured after 2 hr (reference value: 37 +/- 1.7 degC)
Rattus norvegicus [21] = test: Antipyretic activity in Wistar Rattus norvegicus (rat) assessed as decrease in Brewer's yeast solution-induced hyperthermia at 20 mg/kg, po measured after 1 hr (reference value: 37 +/- 3.55 degC)

Cc1cc(C(C)(C)C)c(O)c(C(C)(C)C)c1
inhibition [1]: Active | Activity [2]: Active

O=C([O-])Cc1ccccc1Nc1c(Cl)cccc1Cl.[Na+] [DICLOFENAC SODIUM]
inhibition in vivo at 30 mg/kg (Rattus norvegicus [3]): 82% | inhibition in vivo at 30 mg/kg (Rattus norvegicus [4]): 41.3% | inhibition in vivo at 30 mg/kg (Rattus norvegicus [5]): 100% | inhibition in vivo at 30 mg/kg (Rattus norvegicus [6]): 92.8% | inhibition in vivo at 30 mg/kg (Rattus norvegicus [7]): 86.3% | Activity (Rattus norvegicus [8]): 0.63 mmol | Activity (Rattus norvegicus [9]): 3.28 nmol | Activity (Rattus norvegicus [10]): 1.37 U/L | Activity (Rattus norvegicus [11]): 75.25 U/L | Activity (Rattus norvegicus [12]): 84.43 U/L | Activity (Rattus norvegicus [13]): 201.27 U/L | Activity (Rattus norvegicus [14]): 32.09 mmol | Activity (Rattus norvegicus [15]): 0.79 mg | Activity (Rattus norvegicus [16]): 1.41 nmol/mL | Activity (Rattus norvegicus [17]): 320.69 U/L

Cc1c(C)c2c(c(C)c1O)CC[C@@](C)(CCC[C@H](C)CCC[C@H](C)CCCC(C)C)O2
inhibition [1]: Active | Activity [2]: Active

Cc1c(C)c2c(c(C)c1O)CCC(C)(C(=O)O)O2 (centres undefined)
inhibition [1]: Active | Activity [18]: Active

CC(=O)Nc1ccc(O)cc1 [ACETAMINOPHEN]
T (Rattus norvegicus [19]): 36.4 °C | T (Rattus norvegicus [20]): 36.8 °C | T (Rattus norvegicus [21]): 37 °C
